#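 Exposure lasted 48 hours, with cells grown in 96-well plates and compounds tested at five concentrations. The concentration for full growth arrest is given as TGI.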
# How the values were obtained:
# Experiment in all cases: NCI-60 cell line screen, 48 h
# [1] = system: 786-0 renal
# [2] = system: A498 renal
# [3] = system: A549 NSCLC
# [4] = system: ACHN renal
# [5] = system: BT-549 breast
# [6] = system: CAKI-1 renal
# [7] = system: CCRF-CEM leukemia
# [8] = system: COLO 205 colon
# [9] = system: DU-145 prostate
# [10] = system: EKVX NSCLC
# [11] = system: HCC-2998 colon
# [12] = system: HCT-116 colon
# [13] = system: HCT-15 colon
# [14] = system: HL-60(TB) leukemia
# [15] = system: HOP-62 NSCLC
# [16] = system: HOP-92 NSCLC
# [17] = system: HS 578T breast
# [18] = system: HT29 colon
# [19] = system: IGROV1 ovarian
# [20] = system: K-562 leukemia
# [21] = system: KM12 colon
# [22] = system: LOX IMVI melanoma
# [23] = system: M14 melanoma
# [24] = system: MALME-3M melanoma
# [25] = system: MCF7 breast
# [26] = system: MDA-MB-231 breast
# [27] = system: MDA-MB-435
# [28] = system: MDA-N
# [29] = system: MOLT-4 leukemia
# [30] = system: NCI-H226 lung
# [31] = system: NCI-H23 lung
# [32] = system: NCI-H460 lung
# [33] = system: NCI-H522 lung
# [34] = system: NCI/ADR-RES ovarian
# [35] = system: OVCAR-3 ovarian
# [36] = system: OVCAR-4 ovarian
# [37] = system: OVCAR-5 ovarian
# [38] = system: OVCAR-8 ovarian
# [39] = system: PC-3 prostate
# [40] = system: RPMI-8226 leukemia
# [41] = system: RXF 393 renal
# [42] = system: SF-268 CNS
# [43] = system: SF-295 CNS
# [44] = system: SF-539 CNS
# [45] = system: SK-MEL-2 melanoma
# [46] = system: SK-MEL-28 melanoma
# [47] = system: SK-MEL-5 melanoma
# [48] = system: SK-OV-3 ovarian
# [49] = system: SN12C renal
# [50] = system: SNB-19 CNS
# [51] = system: SR leukemia
# [52] = system: SW-620 colon
# [53] = system: T-47D breast
# [54] = system: TK-10 renal
# [55] = system: U251 CNS
# [56] = system: UACC-257 melanoma
# [57] = system: UACC-62 melanoma
# [58] = system: UO-31 renal
compound,measurement,setting,value
O=C(CCc1ccc(O)c(O)c1)OCCc1ccccc1,TGI,[1],> 100 µM
same,TGI,[2],> 100 µM
same,TGI,[3],> 100 µM
same,TGI,[4],> 100 µM
same,TGI,[5],> 100 µM
same,TGI,[6],> 100 µM
same,TGI,[7],76.3 µM
same,TGI,[8],> 100 µM
same,TGI,[9],> 100 µM
same,TGI,[10],> 100 µM
same,TGI,[11],> 100 µM
same,TGI,[12],> 100 µM
same,TGI,[13],> 100 µM
same,TGI,[14],17.3 µM
same,TGI,[15],> 31.6 µM
same,TGI,[16],> 100 µM
same,TGI,[17],> 100 µM
same,TGI,[18],> 100 µM
same,TGI,[19],> 100 µM
same,TGI,[20],> 57.5 µM
same,TGI,[21],> 100 µM
same,TGI,[22],54.8 µM
same,TGI,[23],> 100 µM
same,TGI,[24],> 100 µM
same,TGI,[25],> 100 µM
same,TGI,[26],> 100 µM
same,TGI,[27],40.6 µM
same,TGI,[28],30.4 µM
same,TGI,[29],> 83.4 µM
same,TGI,[30],> 100 µM
same,TGI,[31],> 100 µM
same,TGI,[32],> 100 µM
same,TGI,[33],17.8 µM
same,TGI,[34],> 100 µM
same,TGI,[35],> 100 µM
same,TGI,[36],> 65.6 µM
same,TGI,[37],> 100 µM
same,TGI,[38],> 100 µM
same,TGI,[39],> 100 µM
same,TGI,[40],> 86.6 µM
same,TGI,[41],> 100 µM
same,TGI,[42],> 100 µM
same,TGI,[43],> 100 µM
same,TGI,[44],54.5 µM
same,TGI,[45],> 100 µM
same,TGI,[46],> 100 µM
same,TGI,[47],> 100 µM
same,TGI,[48],> 100 µM
same,TGI,[49],> 100 µM
same,TGI,[50],> 100 µM
same,TGI,[51],> 78.2 µM
same,TGI,[52],> 62.2 µM
same,TGI,[53],> 100 µM
same,TGI,[54],> 100 µM
same,TGI,[55],> 100 µM
same,TGI,[56],> 100 µM
same,TGI,[57],> 100 µM
same,TGI,[58],> 100 µM
CC(=O)c1cc(I)c(O)c2ncccc12,TGI,[1],9.07 µM
same,TGI,[2],6.53 µM
same,TGI,[3],> 10 µM
same,TGI,[4],5.6 µM
same,TGI,[5],> 10 µM
same,TGI,[6],> 10 µM
same,TGI,[7],4.45 µM
same,TGI,[8],7.81 µM
same,TGI,[9],8.45 µM
same,TGI,[10],> 10 µM
same,TGI,[11],> 10 µM
same,TGI,[12],5.93 µM
same,TGI,[13],> 10 µM
same,TGI,[14],4.28 µM
same,TGI,[15],> 10 µM
same,TGI,[16],6.19 µM
same,TGI,[17],> 10 µM
same,TGI,[18],> 10 µM
same,TGI,[19],7.44 µM
same,TGI,[20],> 10 µM
same,TGI,[21],> 10 µM
same,TGI,[22],> 10 µM
same,TGI,[23],4.09 µM
same,TGI,[24],6.97 µM
same,TGI,[25],> 10 µM
same,TGI,[26],8.09 µM
same,TGI,[27],> 10 µM
same,TGI,[28],> 10 µM
same,TGI,[29],5.77 µM
same,TGI,[30],5.7 µM
same,TGI,[31],8.45 µM
same,TGI,[32],> 10 µM
same,TGI,[33],> 10 µM
same,TGI,[34],8.24 µM
same,TGI,[35],6.57 µM
same,TGI,[36],6.82 µM
same,TGI,[37],> 10 µM
same,TGI,[38],7.38 µM
same,TGI,[39],> 10 µM
same,TGI,[40],> 10 µM
same,TGI,[41],8.76 µM
same,TGI,[42],9.86 µM
same,TGI,[43],9.61 µM
same,TGI,[44],6.57 µM
same,TGI,[45],> 10 µM
same,TGI,[46],> 10 µM
same,TGI,[47],5.08 µM
same,TGI,[48],> 10 µM
same,TGI,[49],> 10 µM
same,TGI,[50],> 10 µM
same,TGI,[51],8.98 µM
same,TGI,[52],> 10 µM
same,TGI,[53],> 10 µM
same,TGI,[54],> 10 µM
same,TGI,[55],> 10 µM
same,TGI,[56],6.06 µM
same,TGI,[57],7.9 µM
